Values of other authors as cited in patent publication US20190314394A1, “IMMUNE-POTENTIATING DRUG NANOCARRIERS AND METHODS OF PRODUCTION AND USE THEREOF” (priority 2013, published 2019).

Test system: HLA-DR molecules
Conditions: 15 out of 16 of the most prevalent HLA-DR molecules; read-out: IC50 (high or intermediate affinity binding)

aKXVAAWTLKAAa (SEQ ID NO: 5) (AKAVAAWTLKAAA; D-alanine termini, cyclohexylalanine; MOD_RES (1)..(1) D-Alanine; MOD_RES (3)..(3) Cyclohexylalanine; MOD_RES (13)..(13) D-Alanine) [PADRE peptide variant; a=D-alanine, X=cyclohexylalanine]
IC50: < 1 µM
